Consider 2 molecules from publication PMC11207335, “In Vitro Metabolism and Transport Characteristics of Zastaprazan” (Pharmaceutics, 2024).

In one series the target is T1, BCRP (Homo sapiens, UniProt Q9UNQ0).
T1 construct: host or cells: LLC-PK1 (porcine kidney cells)
T1 sequence (Q9UNQ0 1-655): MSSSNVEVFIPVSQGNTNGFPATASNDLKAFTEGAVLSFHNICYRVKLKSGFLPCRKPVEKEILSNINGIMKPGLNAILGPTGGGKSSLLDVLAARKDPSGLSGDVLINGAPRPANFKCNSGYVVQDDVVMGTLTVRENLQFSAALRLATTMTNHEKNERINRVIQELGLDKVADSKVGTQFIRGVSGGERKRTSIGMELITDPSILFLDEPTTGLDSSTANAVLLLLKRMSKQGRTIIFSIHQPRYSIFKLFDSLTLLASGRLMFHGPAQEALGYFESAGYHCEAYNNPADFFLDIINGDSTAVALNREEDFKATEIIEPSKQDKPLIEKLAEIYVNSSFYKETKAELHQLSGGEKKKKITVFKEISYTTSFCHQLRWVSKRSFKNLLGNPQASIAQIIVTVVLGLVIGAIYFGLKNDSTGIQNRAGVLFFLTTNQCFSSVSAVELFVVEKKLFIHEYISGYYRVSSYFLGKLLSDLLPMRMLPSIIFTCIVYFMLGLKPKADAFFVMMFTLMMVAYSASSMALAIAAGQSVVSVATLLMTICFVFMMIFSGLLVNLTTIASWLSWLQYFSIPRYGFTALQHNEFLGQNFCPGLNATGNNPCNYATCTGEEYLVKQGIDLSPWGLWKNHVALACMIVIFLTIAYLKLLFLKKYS
Kind of series: Permeability in LLC-PK1-BCRP cells. To be noted: for Substrate: BCRP. The class given is in vitro ADME. As for the experimental part:
LLC-PK1-P-gp or BCRP cells were seeded on collagen-coated 24-transwell membranes at a density of 2.5 × 10^5 cells/mL and maintained at 37 °C in a humidified atmosphere with 5% CO2/95% air for 5 days in Medium 199 supplemented with 10% […], 50 μg/mL of gentamycin, and 50 μg/mL of hygromycin. The culture medium was replaced every other day. On the day of the experiment, the growth medium was discarded, and the attached cells were washed with prewarmed HBSS (pH 7.4) and preincubated with HBSS for 20 min at 37 °C. […] Aliquots (0.1 mL) in the apical side were transferred to clean tubes every 15 min for 1 h and replaced with an equal volume of fresh HBSS.
LLC-PK1-P-gp or BCRP cells were seeded on collagen-coated 24-transwell membranes at a density of 2.5 × 10^5 cells/mL and cultured for 5 days. The growth medium was discarded on the day of the experiment, and the attached cells were washed with prewarmed HBSS (pH 7.4) and preincubated with HBSS for 20 min at 37 °C. […] Aliquots (0.1 mL) in the apical side were transferred to clean tubes every 15 min for 1 h and replaced with an equal volume of fresh HBSS. Aliquots (30 μL) of each sample were vortex-mixed with 90 μL of IS solution for 1 min, and then centrifugation was performed at 13,500 rpm at 4 °C for 5 min. Aliquots (5 μL) of the supernatant were injected into the LC-MS/MS for analysis.
The permeability (Papp) was calculated from the following equation [23, 24]: Papp(cm/s)=transport ratenmol/s/JP−1366 or M1 concentration (μM)×surface area of membrane (cm^2)

The next series has as its target T2, OCT2 (Homo sapiens, UniProt O15244).
T2 sequence (O15244 1-555): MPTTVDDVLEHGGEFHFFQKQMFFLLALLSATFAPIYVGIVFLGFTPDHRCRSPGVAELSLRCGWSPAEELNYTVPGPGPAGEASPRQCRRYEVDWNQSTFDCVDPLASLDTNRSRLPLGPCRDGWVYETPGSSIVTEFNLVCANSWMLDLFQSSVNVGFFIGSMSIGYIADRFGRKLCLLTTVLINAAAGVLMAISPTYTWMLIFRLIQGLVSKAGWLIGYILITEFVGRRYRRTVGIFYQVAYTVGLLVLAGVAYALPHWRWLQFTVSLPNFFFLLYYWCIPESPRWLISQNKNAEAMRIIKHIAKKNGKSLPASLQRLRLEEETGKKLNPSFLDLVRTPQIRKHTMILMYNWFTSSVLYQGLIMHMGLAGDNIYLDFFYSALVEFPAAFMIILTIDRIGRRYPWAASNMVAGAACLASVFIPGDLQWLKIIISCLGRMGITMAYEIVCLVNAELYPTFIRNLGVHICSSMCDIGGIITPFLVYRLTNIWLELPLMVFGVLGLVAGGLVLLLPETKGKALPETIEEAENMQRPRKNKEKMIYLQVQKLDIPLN
The series is described as follows: Uptake into HEK293 cells expressing OCT2. To be noted: for Uptake Rate / Fold-Change: 6 μM; for Fold-Change: vs HEK293-mock; for Substrate: OCT2.

Another series deals with T3, OATP1B3 (Homo sapiens, UniProt Q9NPD5).
T3 sequence (Q9NPD5 1-702): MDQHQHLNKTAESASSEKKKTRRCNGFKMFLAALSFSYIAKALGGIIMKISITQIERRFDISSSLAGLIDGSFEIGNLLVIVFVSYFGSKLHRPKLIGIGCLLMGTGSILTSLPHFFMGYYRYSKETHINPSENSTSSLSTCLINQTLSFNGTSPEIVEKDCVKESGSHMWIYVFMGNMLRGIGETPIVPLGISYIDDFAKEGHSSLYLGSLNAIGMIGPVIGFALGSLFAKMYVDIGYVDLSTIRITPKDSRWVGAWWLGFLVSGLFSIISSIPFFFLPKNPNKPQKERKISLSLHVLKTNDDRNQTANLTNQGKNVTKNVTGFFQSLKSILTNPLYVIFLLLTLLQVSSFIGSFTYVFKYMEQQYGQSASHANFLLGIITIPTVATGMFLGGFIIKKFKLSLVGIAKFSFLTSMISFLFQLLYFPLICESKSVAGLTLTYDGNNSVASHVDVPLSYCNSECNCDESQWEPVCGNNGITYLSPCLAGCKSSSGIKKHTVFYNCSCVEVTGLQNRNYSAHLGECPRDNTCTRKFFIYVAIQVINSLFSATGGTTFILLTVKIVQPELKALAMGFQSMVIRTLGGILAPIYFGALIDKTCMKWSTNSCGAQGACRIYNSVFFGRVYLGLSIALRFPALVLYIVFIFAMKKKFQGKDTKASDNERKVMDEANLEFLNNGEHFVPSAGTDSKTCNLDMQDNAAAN
Kind of series: Uptake into HEK293 cells expressing OATP1B3. As to conditions: for Uptake Rate / Fold-Change: 6 μM; for Fold-Change: vs HEK293-mock; for Substrate: OATP1B3.

[1] abbreviates: pig, pH 7.4, with Ko134 1 μM, LLC-PK1-BCRP, Ko134 1 μM.
Where [2] appears, read: pig, pH 7.4, LLC-PK1-BCRP, Control.

A word on the Papp A→B: it is the apparent permeability from the apical to the basolateral side of a cell layer. For orientation: Papp B→A means how fast a substance crosses the layer from the basolateral side. For `Cc1cccc(CO)c1CNc1cc(C(=O)N2CCC2)cn2c(C)c(C)nc12` [M1, azetidin-1-yl(8-((2-(hydroxymethyl)-6-methyl-benzyl)amino)-2,3-dimethylimidazo[1,2-a]pyridin-6-yl)methanone], the Substrate entry at BCRP, on OCT2 and at OATP1B3 was “No” in each case. The apparent permeability from apical to basolateral (Papp A→B) at 1 h, 4 µM on BCRP (setting [1]) is 32 ± 2.84 ×10⁻⁶ cm/s; on BCRP (setting [2]), 31.7 ± 3.39 ×10⁻⁶ cm/s. The values for the basolateral-to-apical permeability (Papp B→A) at 1 h, 4 µM at BCRP (setting [1]) and at BCRP (setting [2]) were 47.3 ± 1.39 ×10⁻⁶ cm/s and 33.8 ± 3.45 ×10⁻⁶ cm/s, respectively. Besides, the efflux ratio at 1 h at BCRP (pig, pH 7.4, LLC-PK1-BCRP, concentration range of 0.3–85 μM, read-out: ER) lay in the range of 1.1 to 1.7. Moreover, the “Uptake Rate” value on OCT2 (HEK293-OCT2, cimetidine 100 μM) was found to be 49.28 ± 4.50 pmol/min/10^5 Cells; on OCT2 (HEK293-OCT2, control) it was 51.71 ± 1.36 pmol/min/10^5 Cells; at OATP1B3 (HEK293-OATP1B3, control) it was 44.54 ± 0.74 pmol/min/10^5 Cells; at OATP1B3 (HEK293-OATP1B3, rifampin 20 μM), 52.67 ± 2.99 pmol/min/10^5 Cells. Further, the Fold-Change was 1.0 at OCT2 (HEK293-OCT2, cimetidine 100 μM); 1.0 on OCT2 (HEK293-OCT2, control); 0.9 at OATP1B3 (HEK293-OATP1B3, control); 1.0 at OATP1B3 (HEK293-OATP1B3, rifampin 20 μM).
Consider `Cc1cccc(C)c1CNc1cc(C(=O)N2CCC2)cn2c(C)c(C)nc12` [JP-1366, 1-azetidinyl(8-(((2,6-dimethylphenyl)methyl)amino)-2,3-dimethylimidazo(1,2-a)pyridin-6-yl)methanone], for which the Substrate result at BCRP, at OCT2 and on OATP1B3 was “No” in each case. The figures for the Papp A→B at 1 h, 4 µM on BCRP (setting [1]) and at BCRP (setting [2]) were 13.6 ± 0.54 ×10⁻⁶ cm/s and 14.8 ± 1.23 ×10⁻⁶ cm/s, respectively. Moreover, the Papp B→A at 1 h, 4 µM on BCRP (setting [1]) came out at 22.6 ± 0.47 ×10⁻⁶ cm/s; at BCRP (setting [2]) it was 20.5 ± 3.95 ×10⁻⁶ cm/s. In addition, the “Uptake Rate” value at OCT2 (HEK293-OCT2, cimetidine 100 μM) was determined as 49.28 ± 4.50 pmol/min/10^5 Cells; at OCT2 (HEK293-OCT2, control), 51.71 ± 1.36 pmol/min/10^5 Cells; on OATP1B3 (HEK293-OATP1B3, control), 44.54 ± 0.74 pmol/min/10^5 Cells; at OATP1B3 (HEK293-OATP1B3, rifampin 20 μM), 52.67 ± 2.99 pmol/min/10^5 Cells.
